Measured values as given in patent US11767506B2, “In vitro maturation culture medium of immature oocytes and use thereof” (CHINA AGRICULTURAL UNIVERSITY, priority 2017, dated 2023).

Tests used:
human immature oocytes = assay: In vitro maturation of human immature oocytes on granule cell feeder layer, then ICSI and embryo culture; assay type: cell-based
Protocol: Microdrop culture of granule cells: the cumulus oocyte complex collected from superovulation of patients were digested with hyaluronidase and then centrifuged to obtain the granule cells; the cells were cultured in the culture solution for in vitro maturation of examples 1˜6 for microdroplet adherent culture respectively. The microdroplets were covered with liquid paraffin. After the granule cells adhered to the wall of the culture dishes, the resultants could be used as the culture medium 1˜6 for in vitro maturation of immature oocytes.
The immature oocytes identified from superovulation of patients were put in the culture medium for in vitro maturation 1 (i.e., the culture medium obtained by using the culture solution for in vitro maturation of Example 1) containing feeder layer cells for microdrop culture. There were 1˜2 oocytes per microdroplet, culture time 20˜25 h, and culture conditions: 37° C., air with 5% CO2 and 6% of O2, and humidity 100%. The development results of the immature oocytes after microdroplet culturing in the culture medium for in vitro maturation 1 were shown in FIG. 1.
Intracytoplasmic sperm injection (ICSI) using the mature oocytes: the immature oocytes were culture in vitro for 20˜25 h, the maturation status was observed. The oocytes reached the metaphase II (MII) were placed under micromanipulator for ICSI injection.
Embryo culture after fertilization: embryo culture medium G-1PLUS™ (Vitrolife, Sweden) was used to make several 50 μL microdroplets in a 35 mm culture dish. Mineral oil was covered on the surface of the droplets. This culture medium was suitable for culturing embryos from fertilized oocyte (0 day) to 8-cell embryo.
Embryo culture medium G-2 PLUS™ (Vitrolife. Sweden) was used to make several 50 μL microdroplets in a 35 mm Petri culture dish. Mineral oil was covered on the surface of the droplets. This culture medium was suitable for culturing embryos from 8-cell stage until blastocyst stage.
The common medium for maturation was M199 culture medium.

mouse oocytes = assay: In vitro maturation of mouse immature oocytes (cumulus oocyte complexes) on mouse granule cells, fertilization and embryo culture; assay type: cell-based, C57/BL6J mice
Source text: The specific culture method was referred to Example 8, and the differences were: instead of the granule cells form patients, granule cells from C57/BL6J mice were used; instead of the oocytes form patients, cumulus oocyte complexes form C57/BL6J mice were used.

[1] = system: human ovary granule cells; assay: Expression/secretion of EGF-like growth factors (AREG) by granule cells; assay type: cell-based; settings: FIG. 1F
Protocol: Correspondingly, our experiments were performed by: under conditions of in vitro culture, simulating the effect of LH, which functions on granule cells to promote the maturation of oocytes in vivo, so as to achieve the goal of promoting the maturation of oocytes and meanwhile, improving the development potential.

[2] = system: oocyte in follicle of mouse; assay: In vitro follicle culture model, recovery of oocyte meiosis; assay type: cell-based; settings: FIG. 2A

Cc1ccc(NC(=O)CCCCCC(=O)Nc2ccccc2N)cc1 [HDACi 4b]
maturation and development of human oocytes from germinal vesicle (GV) stage into metaphase II (MII) stage (human immature oocytes; FIG. 1A): promotes the maturation and development | numbers of 2 pronucleus zygotes (2PN) obtained by ICSI fertilization on MII oocytes (human immature oocytes; FIG. 1B, treated group versus control group): basically the same | cleavage ability of treated oocytes after fertilization (human immature oocytes; FIG. 1C): significantly improved | development ability of embryos (blastocyst counting) (human immature oocytes; FIG. 1E): significantly increased | quality of blastocysts (immunofluorescence of OCT4 and CDX2) (human immature oocytes; FIG. 1G): significantly improved | maturation and development ability of mouse oocytes (mouse oocytes; FIG. 2): significantly promotes | oocyte stepping over the first meiosis to metaphase II (MII) (mouse oocytes; FIG. 2C): significantly promotes | cleavage abilities after fertilization (mouse oocytes; FIG. 2D, versus control group): basically the same | ability to develop into an embryo from fertilized GV stage oocytes (mouse oocytes; FIG. 2E): significantly improved | ability to develop into a blastocyst from fertilized treated oocytes (mouse oocytes; FIG. 2F): significantly increased | ability to develop into a blastocyst (blastocyst counting) from fertilized treated GV stage oocytes (mouse oocytes; FIG. 2H): significantly increased | quality of blastocysts (immunofluorescence of OCT4) (mouse oocytes; FIG. 2I): significantly increased | expression of AREG [1]: significantly promotes | recovery of oocyte meiosis in follicle of mouse [2]: significantly promotes
